Laboratory results taken from patent US11497813B2, “Bortezomib conjugates and methods using same” (Frank EBETINO et al., priority 2015, dated 2022).
Entries after “also recorded” stand apart in the source; their conditions may differ.

Test system: osteoclasts
Test: Osteoclast formation and bone resorption on bone slices pre-incubated with compound
Type: cell-based, mouse
Protocol: FIG. 5A is a scheme of an exemplary synthesis of compound BP-Btz1. FIG. 5B is a series of images of bone slices pre-incubated with 1 μM BP-Btz1, Btz, or bisphosphonate (BP) overnight. Drug solutions were removed and bone slices were washed with PBS extensively. […] (BM) cells from UB^G76V-GFP mice were cultured on bone slices in the presence of M-CSF and RANKL for 9 days. Top images (a): GFP^+ cells were observed under a fluorescence microscope and GFP signal intensity was quantified. Middle images (b): bone slices were fixed and subjected to TRAP staining for osteoclasts (OCs). OC #/slice were counted. Bottom images (c): cells were removed from slices. Toluidine blue staining was performed and pit areas/slice were counted. FIG. 5C is a series of images of murine BM cells cultured and stained for ALP. FIG. 5D is a series of images of human MSCs cultured and stained for ALP. Murine BM cells and human MSCs were cultured in the OB-inducing medium plus different concentrations of BP-Btz1 or Btz for 4 or 6 days, respectively. Cells were stained for ALP. The ALP^+ areas were measured by Image J. *P<0.05 vs. Btz-treated cells.
As a control, the effects of the non-bioactive bisphosphonate (BP) that would be released in the bone compartment were also studied. […] In a pivotal in vitro study, this BP-Btz1 and Btz were independently incubated with bone slices for 24 hours, after which the bone slices were removed and placed in culture wells with fresh media along with osteoclast precursors. […]
1. […] Following proteasome inhibitor administration, Ub^G76V accumulates and GFP fluorescence is readily apparent. GFP^+ OCs were detected at 4 and 8 hrs after adding Btz to OC cultures, which disappeared at 24 hrs. […] The number and area of OCs and resorption pits are assessed. The appearance, intensity and distribution of GFP^+ cells on bone slices and plastic surrounding bone slices during OC formation is observed and recorded. […] Area of ALP^+ and mineralized bone nodule, and the expression levels of OB marker genes (ALP, osteocalcin, Runx2) are measured. […]

SMILES: CC(C)C[C@H](NC(=O)[C@H](Cc1ccccc1)NC(=O)c1cnccn1)B1OCCN(CCOC(=O)NC(P(=O)(O)O)P(=O)(O)O)CCO1 [BP-Btz1]
- osteoclast function: maintains its bioactivity on inhibition of OCs; also recorded: inhibits osteoclast function
- Formation and activity of osteoclasts on pre-incubated bone slices (bone slices pre-incubated with compound (1 μM, 24 hours), removed, then osteoclast precursors in fresh media): significantly reduced
- anti-osteoclast activity on bone slices (in vitro studies on bone slices, compared with Btz): anti-osteoclast activity equivalent to than Btz itself
